From patent US5986131A, “RXR selective ligands” (Hoffmann-La Roche Inc., priority 1997, dated 1999)
“Also recorded” adds a separate entry of the source.

Legend:
human sebaceous cells = assay: Antiproliferative activity on human sebocytes in vitro; format: cell-based
Protocol: Sebaceous cells were isolated from adult human sebaceous glands by a combination of enzymatic and mechanical methods (Doran et al., 1991). The cells were cultured in Iscove's medium containing 10% fetal calf serum and 4 μg/ml dexamethasone on a layer of growth-arrested 3T3 mouse fibroblasts. Cells were plated in medium without the test compound and then given test compound in fresh medium 24-48 hours after the initial plating. The cultures were given fresh medium, containing the test compound, every 48 hours. On the day of harvesting, the cultures were rinsed with 0.03% EDTA in PBS, to remove only the 3T3 fibroblasts. followed by incubation in 0.05% trypsin/0.03% EDTA. The cells were suspended, mixed vigorously to prepare a single cell suspension and counted in a hemocytometer.
Stock solutions of compounds were made up as 10^-2 M solutions in 100% DMSO and stored at -20° C. in the dark. Compounds in solution were brought to room temperature and used by diluting directly into complete medium to the appropriate concentration.
The compounds of Example 12, Example 2, and Example 4 were tested for their effects on inhibiting the proliferation of first passage human sebaceous cells in vitro after 10 days of exposure to drug.

RARα = target: T1, RARα (Homo sapiens, UniProt P10276); assay: RARα binding; conditions: Table 2; read-out: RARα binding IC50
T1 sequence (P10276 1-462): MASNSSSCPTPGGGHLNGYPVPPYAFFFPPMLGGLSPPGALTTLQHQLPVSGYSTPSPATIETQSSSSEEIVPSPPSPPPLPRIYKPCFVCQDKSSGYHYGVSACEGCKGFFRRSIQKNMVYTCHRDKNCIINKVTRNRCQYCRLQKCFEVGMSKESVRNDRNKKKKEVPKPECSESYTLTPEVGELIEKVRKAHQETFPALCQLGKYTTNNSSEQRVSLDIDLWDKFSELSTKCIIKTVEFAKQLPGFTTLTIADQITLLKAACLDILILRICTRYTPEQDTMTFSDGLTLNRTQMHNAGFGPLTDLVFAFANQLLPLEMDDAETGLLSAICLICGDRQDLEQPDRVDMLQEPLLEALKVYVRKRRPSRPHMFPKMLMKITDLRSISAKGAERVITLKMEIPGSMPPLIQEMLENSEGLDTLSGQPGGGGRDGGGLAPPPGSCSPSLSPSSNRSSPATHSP
Source text: (§1) Methods essentially as described in those publications were used to determine the binding and transactivation properties of retinoids reported in the Examples herein.

RXRα = target: T2, RXRα (Homo sapiens, UniProt P19793); assay: RXRα binding; conditions: Table 2
T2 sequence (P19793 1-462): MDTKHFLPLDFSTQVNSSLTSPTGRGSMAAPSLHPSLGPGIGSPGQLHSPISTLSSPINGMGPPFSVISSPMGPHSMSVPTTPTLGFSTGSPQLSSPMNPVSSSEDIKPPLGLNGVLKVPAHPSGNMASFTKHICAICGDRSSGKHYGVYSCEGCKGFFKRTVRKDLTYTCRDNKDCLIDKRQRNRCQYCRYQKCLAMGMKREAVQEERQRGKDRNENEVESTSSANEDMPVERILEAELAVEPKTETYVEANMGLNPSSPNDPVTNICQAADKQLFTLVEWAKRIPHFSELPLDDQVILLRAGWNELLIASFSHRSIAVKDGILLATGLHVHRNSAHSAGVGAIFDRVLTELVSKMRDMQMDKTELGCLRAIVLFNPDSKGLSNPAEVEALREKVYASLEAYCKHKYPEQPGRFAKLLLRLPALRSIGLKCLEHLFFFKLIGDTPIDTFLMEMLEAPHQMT
Source text: as §1

Rhino mouse utricles = assay: Rhino mouse utricle reduction activity; format: in vivo, Rhino mice; conditions: topical; for Utricle Size: 3 weeks; for Utricle size % Change from Control: ns = not statistically significant, others p<0.05
Protocol: Compounds were dissolved in 100% acetone and stored at 4° C. for the duration of the experiment under nitrogen. […] One day after the last dose, the mice were sacrificed by CO2 inhalation. […] The epidermis was then separated from the dermis.
The samples were kept in each of the above solutions for 2 hours. The skin samples were removed from the xylene and mounted on glass microscope slides. Image analysis, using the Ultimage image analysis software, was used to determine the mean diameter and area of utricles. Approximately 5 fields per sample were examined, for an average of 150 utricles per mouse measured.

CC1=C(/C=C/C2=C(/C=C/C(C)=C/C(=O)O)CCCC2)C(C)(C)CCC1 [Example 4, (2E,4E)-3-Methyl-5-(2-((E)-2(2,6,6-trimethyl-1-cyclohexen-1-yl)ethenyl)-1-cyclohexen-1-yl)-2,4-pentadienoic acid]
inhibition of sebocyte proliferation (in words) (human sebaceous cells): poor dose response curve; also recorded: much weaker than 13-cis-retinoic acid
IC50 (human sebaceous cells; Homo sapiens, 240 h, first passage cells, 10 days of exposure, read-out: Inhibition of human sebaceous cell proliferation in vitro IC50): > 1 µM
IC50 (RARα): > 10 µM
IC50 (RXRα): 0.092 µM
Utricle Size (Rhino mouse utricles; 0.1 μg/day): 9843 ± 565 μm^2 / utricle
Utricle size % Change from Control (Rhino mouse utricles; 0.1 μg/day): +1%
Utricle Size (Rhino mouse utricles; 1 μg/day): 9491 ± 507 μm^2 / utricle
Utricle size % Change from Control (Rhino mouse utricles; 1 μg/day): -3%
Utricle Size (Rhino mouse utricles; 10 μg/day): 8951 ± 964 μm^2 / utricle
Utricle size % Change from Control (Rhino mouse utricles; 10 μg/day): -8%
Utricle Size (Rhino mouse utricles; 100 μg/day): 5916 ± 992 μm^2 / utricle
Utricle size % Change from Control (Rhino mouse utricles; 100 μg/day): -39%
